With `COc1ccc(-c2cc(-c3ccc(C(=O)O)cc3)no2)cc1` [Compound 532] as the compound, how does the melting point read?
The melting point was 298 to 300 °C.

Which melting point does the source give for `O=C(O)c1ccc(-c2cc(-c3ccc(Cl)cc3)on2)cc1` [Compound 533] here?
Its melting point is 273 to 275 °C.

Which melting point does the source give for `Cc1ccc(-c2cc(-c3ccc(C(=O)O)cc3)no2)cc1` [Compound 534] here?
Its melting point is 297.5 to 299 °C.

With `O=C(O)c1ccc(-c2cc(-c3ccccc3F)no2)cc1` [Compound 535] as the compound, how does the melting point read?
The melting point was 302 to 303 °C.

With `O=C(O)c1ccc(-c2cc(-c3cccc(F)c3)no2)cc1` [Compound 536] as the compound, how does the melting point read?
Its melting point is 319 to 321 °C.

With `O=C(O)c1ccc(-c2cc(-c3ccc(F)cc3)no2)cc1` [Compound 537] as the compound, how does the melting point read?
The melting point was 322 to 323 °C.

For `O=C(O)c1ccc(-c2cc(-c3ccc(F)cc3F)no2)cc1` [Compound 538], which melting point is on record?
The melting point was 324 to 326 °C.

For `COc1ccc(-c2cc(-c3ccc(C(=O)O)cc3)on2)cc1` [Compound 539], which melting point is on record?
The melting point was 297.5 to 299.5 °C.

Which melting point does the source give for `O=C(O)c1ccc(-c2cc(-c3ccc(Cl)cc3)no2)cc1` [Compound 540] here?
Its melting point is 320.5 to 322.5 °C.

For `Cc1ccc(-c2cc(-c3ccc(C(=O)O)cc3)on2)cc1` [Compound 541], which melting point is on record?
Its melting point is 307 to 308 °C.

Which melting point does the source give for `O=C(O)c1ccc(-c2ncc(-c3cccc(OC(F)(F)F)c3)o2)cc1` [Compound 542] here?
The melting point was 284 to 285 °C.

With `O=C(O)c1ccc(-c2ncc(-c3cccc(C(F)(F)F)c3)o2)cc1` [Compound 543] as the compound, how does the melting point read?
The melting point was 286 to 287 °C.

Which melting point does the source give for `COc1cccc(-c2cnc(-c3ccc(C(=O)O)cc3)o2)c1` [Compound 544] here?
Its melting point is 240 to 242 °C.

With `O=C(O)c1ccc(-c2ncc(-c3ccc(OC(F)(F)F)cc3)o2)cc1` [Compound 546] as the compound, how does the melting point read?
The melting point was 222 to 224 °C.

Which melting point does the source give for `COc1ccc(-c2cnc(-c3ccc(C(=O)O)cc3)o2)cc1OC` [Compound 547] here?
The melting point was 241 to 243 °C.

For `O=C(O)c1ccc(-c2ncc(-c3cccc(F)c3F)o2)cc1` [Compound 549], which melting point is on record?
The melting point was 295 to 296 °C.

For `O=C(O)c1ccc(-c2ncc(-c3ccccc3F)o2)cc1` [Compound 550], which melting point is on record?
Its melting point is 272 to 273 °C.

For `COc1cccc(-c2cc(-c3cccc(C(=O)O)c3)n[nH]2)c1` [Compound 551], which melting point is on record?
Its melting point is 238 to 239 °C.

Which melting point does the source give for `O=C(O)c1ccc(-c2ncc(-c3cccc(F)c3)o2)cc1` [Compound 553] here?
The melting point was 264 to 265 °C.

For `O=C(O)c1ccc(-c2ncc(-c3ccc(F)cc3)o2)cc1` [Compound 554], which melting point is on record?
Its melting point is 245 to 246 °C.

For `O=C(O)c1ccc(-c2ncc(-c3ccccc3Cl)o2)cc1` [Compound 555], which melting point is on record?
Its melting point is 276 to 277 °C.

With `O=C(O)c1ccc(-c2ncc(-c3cccc(Cl)c3)o2)cc1` [Compound 556] as the compound, how does the melting point read?
Its melting point is 272 to 274 °C.

For `O=C(O)c1ccc(-c2ncc(-c3ccc4c(c3)OCO4)o2)cc1` [Compound 557], which melting point is on record?
The melting point was 269 to 270 °C.

For `O=C(O)c1ccc(-c2ncc(-c3ccsc3)o2)cc1` [Compound 558], which melting point is on record?
Its melting point is 246 to 247 °C.

Which melting point does the source give for `Cc1ccc(-c2cc(-c3cccc(C(=O)O)c3)no2)cc1` [Compound 573] here?
Its melting point is 257 to 259 °C.

With `O=C(O)c1cccc(-c2cc(-c3ccc(C(F)(F)F)cc3)on2)c1` [Compound 574] as the compound, how does the melting point read?
Its melting point is 281 to 282 °C.

Which melting point does the source give for `O=C(O)c1cccc(-c2cc(-c3ccc(CO)cc3)on2)c1` [Compound 575] here?
The melting point was 248 to 250 °C.

Which melting point does the source give for `O=C(O)c1cccc(-c2ncc(-c3ccccc3F)o2)c1` [Compound 579] here?
The melting point was 228 to 229 °C.

With `O=C(O)c1cccc(-c2ncc(-c3cccc(F)c3)o2)c1` [Compound 580] as the compound, how does the melting point read?
Its melting point is 223 to 224.5 °C.

Which melting point does the source give for `O=C(O)c1cccc(-c2ncc(-c3ccc(F)cc3)o2)c1` [Compound 581] here?
The melting point was 255 to 256 °C.

With `O=C(O)c1cccc(-c2ncc(-c3ccccc3Cl)o2)c1` [Compound 582] as the compound, how does the melting point read?
The melting point was 236 to 237 °C.

With `O=C(O)c1cccc(-c2ncc(-c3cccc(Cl)c3)o2)c1` [Compound 583] as the compound, how does the melting point read?
Its melting point is 220 to 222 °C.

Which melting point does the source give for `O=C(O)c1cccc(-c2ncc(-c3ccccc3C(F)(F)F)o2)c1` [Compound 584] here?
The melting point was 218 to 219 °C.

For `O=C(O)c1cccc(-c2ncc(-c3cccc(C(F)(F)F)c3)o2)c1` [Compound 585], which melting point is on record?
Its melting point is 250 to 251.5 °C.

Which melting point does the source give for `O=C(O)c1cccc(-c2ncc(-c3ccc(C(F)(F)F)cc3)o2)c1` [Compound 586] here?
The melting point was 223.5 to 225 °C.

With `O=C(O)c1cccc(-c2ncc(-c3cccc(OC(F)(F)F)c3)o2)c1` [Compound 587] as the compound, how does the melting point read?
The melting point was 210 to 211 °C.

For `Cc1ccccc1-c1cnc(-c2cccc(C(=O)O)c2)o1` [Compound 588], which melting point is on record?
Its melting point is 207 to 208 °C.

With `Cc1cccc(-c2cnc(-c3cccc(C(=O)O)c3)o2)c1` [Compound 589] as the compound, how does the melting point read?
The melting point was 194 to 195 °C.

Which melting point does the source give for `CCc1ccc(-c2cnc(-c3cccc(C(=O)O)c3)o2)cc1` [Compound 590] here?
Its melting point is 174 to 175 °C.

Which melting point does the source give for `CC(C)c1cccc(-c2cnc(-c3cccc(C(=O)O)c3)o2)c1` [Compound 591] here?
Its melting point is 213 to 215 °C.

For `CC(C)(C)c1ccc(-c2cnc(-c3cccc(C(=O)O)c3)o2)cc1` [Compound 592], which melting point is on record?
Its melting point is 224 to 225 °C.

Which melting point does the source give for `COc1ccccc1-c1cnc(-c2cccc(C(=O)O)c2)o1` [Compound 593] here?
The melting point was 244 to 246 °C.

With `COc1cccc(-c2cnc(-c3cccc(C(=O)O)c3)o2)c1` [Compound 594] as the compound, how does the melting point read?
Its melting point is 207 to 208 °C.

For `O=C(O)c1ccc(-c2nnc(-c3ccccc3)o2)cc1` [Compound 596], which melting point is on record?
The melting point was > 275 °C.

Which melting point does the source give for `CN(C)c1ccccc1-c1nnc(-c2ccc(C(=O)O)cc2)o1` [Compound 601] here?
Its melting point is 177 to 178 °C.

With `CN(C)c1ccccc1-c1nnc(-c2cccc(C(=O)O)c2)o1` [Compound 605] as the compound, how does the melting point read?
The melting point was 170 to 172 °C.

For `CN(C)c1ccc(-c2nnc(-c3ccccc3C(=O)O)o2)cc1` [Compound 606], which melting point is on record?
The melting point was 197 to 200 °C.

For `CN(C)c1cccc(-c2nnc(-c3ccccc3C(=O)O)o2)c1` [Compound 609], which melting point is on record?
Its melting point is 71 to 78 °C.

For `CN(C)c1ccccc1-c1nnc(-c2ccccc2C(=O)O)o1` [Compound 610], which melting point is on record?
Its melting point is 180 to 183 °C.

With `O=C(O)c1cccc(-c2nnc(-c3ccccc3)o2)c1` [Compound 615] as the compound, how does the melting point read?
Its melting point is 190 to 192 °C.

For `CC(C)c1cccc(-c2nnc(-c3cccc(C(=O)O)c3)o2)c1` [Compound 620], which melting point is on record?
Its melting point is 190 to 192 °C.

With `CC(C)(C)C1CCC(c2nnc(-c3ccc(C(=O)O)cc3)o2)CC1` (stereo not drawn) [Compound 621] as the compound, how does the melting point read?
Its melting point is 258 to 261 °C.

With `CC(C)(C)C1CCC(c2nnc(-c3cccc(C(=O)O)c3)o2)CC1` (stereo not drawn) [Compound 622] as the compound, how does the melting point read?
Its melting point is 245 to 247 °C.

For `CN(C)c1ccc(-c2nnc(-c3cccc(C(=O)[O-])c3)o2)cc1.[Na+]` [Compound 624], which melting point is on record?
The melting point was 227 to 235 °C (dec.).

With `CC(C)c1ccc(-c2nnc(-c3cccc(C(=O)[O-])c3)o2)cc1.[Na+]` [Compound 626] as the compound, how does the melting point read?
The melting point was 200 to 205 °C (dec.).

Which melting point does the source give for `CC(C)c1cccc(-c2nnc(-c3ccc(C(=O)[O-])cc3)o2)c1.[Na+]` [Compound 628] here?
Its melting point is > 300 °C.

For `O=C(O)c1ccc(-c2ncc(-c3cc(F)ccc3F)o2)cc1` [Compound 630], which melting point is on record?
Its melting point is 301 to 302 °C.

For `O=C(O)c1ccc(-c2ncc(-c3ccc4c(c3)OCCO4)o2)cc1` [Compound 631], which melting point is on record?
Its melting point is 308 to 309 °C.

With `Cc1cccc(-c2cnc(-c3ccc(C(=O)O)cc3)o2)c1` [Compound 632] as the compound, how does the melting point read?
The melting point was 248 to 249 °C.

Which melting point does the source give for `CCc1ccc(-c2cnc(-c3ccc(C(=O)O)cc3)o2)cc1` [Compound 634] here?
The melting point was 233 to 234 °C.
